The target of experiment [1] is Aurora kinase B (Homo sapiens) (UniProt Q96GD4). The experiment in a line: Binding affinity to wild-type human partial length AURKB (D25 to A303 residues) expressed in mammalian expression system assessed as residual binding level at 10 uM by Kinomescan method relative to control.
In experiment [2] the target is Serine/threonine-protein kinase Chk1 (Homo sapiens) (UniProt O14757). Kind of experiment: Binding affinity to wild-type human partial length CHEK1 (M1 to G289 residues) expressed in bacterial expression system assessed as residual binding level at 10 uM by Kinomescan method relative to control.
The test system of experiment [3] is Receptor-type tyrosine-protein kinase FLT3 (Homo sapiens), P36888 [K663Q]. The experiment in a line: Binding affinity to human partial length FLT3 K663Q mutant (V592 to Y969 residues) expressed in bacterial expression system assessed as residual binding level at 10 uM by Kinomescan method relative to control.
In experiment [4] the target is Beta-adrenergic receptor kinase 1 (Homo sapiens) (UniProt P25098). Kind of experiment: Binding affinity to wild-type human full length GRK2 (M1 to L689 residues) expressed in mammalian expression system assessed as residual binding level at 10 uM by Kinomescan method relative to control.
Experiment [5] has as its target Tyrosine-protein kinase HCK (Homo sapiens) (UniProt P08631). The experiment in a line: Binding affinity to wild-type human full length HCK (M22 to P526 residues) expressed in bacterial expression system assessed as residual binding level at 10 uM by Kinomescan method relative to control.
Experiment [6] deals with Serine/threonine-protein kinase ICK (Homo sapiens) (UniProt Q9UPZ9). Kind of experiment: Binding affinity to wild-type human partial length ICK (M1 to P314 residues) expressed in mammalian expression system assessed as residual binding level at 10 uM by Kinomescan method relative to control.
The target of experiment [7] is Inhibitor of nuclear factor kappa-B kinase subunit beta (Homo sapiens) (UniProt O14920). Kind of experiment: Binding affinity to wild-type human full length IKK-beta (M1 to S756 residues) expressed in mammalian expression system assessed as residual binding level at 10 uM by Kinomescan method relative to control.
Experiment [8] concerns the target Tyrosine-protein kinase ITK/TSK (Homo sapiens) (UniProt Q08881). Kind of experiment: Binding affinity to wild-type human partial length ITK (R335 to L620 residues) expressed in bacterial expression system assessed as residual binding level at 10 uM by Kinomescan method relative to control.
The target in experiment [9] is Mitogen-activated protein kinase kinase kinase 13 (Homo sapiens) (UniProt O43283). The experiment in a line: Binding affinity to wild-type human full length LZK (M1 to W966 residues) expressed in mammalian expression system assessed as residual binding level at 10 uM by Kinomescan method relative to control.
Experiment [10] concerns the target MAP/microtubule affinity-regulating kinase 4 (Homo sapiens) (UniProt Q96L34). The experiment in a line: Binding affinity to wild-type human partial length MARK4 (K29 to G340 residues) expressed in bacterial expression system assessed as residual binding level at 10 uM by Kinomescan method relative to control.
Experiment [11] concerns the target Dual specificity mitogen-activated protein kinase kinase 2 (Homo sapiens) (UniProt P36507). Kind of experiment: Binding affinity to wild-type human full length MEK2 (M1 to V400 residues) expressed in mammalian expression system assessed as residual binding level at 10 uM by Kinomescan method relative to control.
Experiment [12] deals with Serine/threonine-protein kinase 4 (Homo sapiens) (UniProt Q13043). Kind of experiment: Binding affinity to wild-type human full length MST1 (M1 to F487 residues) expressed in bacterial expression system assessed as residual binding level at 10 uM by Kinomescan method relative to control.
In experiment [13] the target is Macrophage-stimulating protein receptor (Homo sapiens) (UniProt Q04912). The experiment in a line: Binding affinity to wild-type human partial length MST1R (I1057 to L1363 residues) expressed in bacterial expression system assessed as residual binding level at 10 uM by Kinomescan method relative to control.
The target in experiment [14] is Mitogen-activated protein kinase kinase kinase 14 (Homo sapiens) (UniProt Q99558). The experiment in a line: Binding affinity to wild-type human partial length NIK (L318 to P947 residues) expressed in mammalian expression system assessed as residual binding level at 10 uM by Kinomescan method relative to control.
In experiment [15] the target is Serine/threonine-protein kinase PAK 5 (Homo sapiens) (UniProt Q9P286). Kind of experiment: Binding affinity to wild-type human partial length PAK7 (Y400 to H719 residues) expressed in bacterial expression system assessed as residual binding level at 10 uM by Kinomescan method relative to control.
The target in experiment [16] is Calcium-dependent protein kinase 1 (Plasmodium falciparum) (UniProt P62344). Kind of experiment: Binding affinity to wild-type Plasmodium falciparum full length CDPK1 (M1 to S524 residues) expressed in mammalian expression system assessed as residual binding level at 10 uM by Kinomescan method relative to control.
Experiment [17] concerns the target Serine/threonine-protein kinase PLK3 (Homo sapiens) (UniProt Q9H4B4). Kind of experiment: Binding affinity to wild-type human partial length PLK3 (A42 to L334 residues) expressed in mammalian expression system assessed as residual binding level at 10 uM by Kinomescan method relative to control.
The target of experiment [18] is Receptor-interacting serine/threonine-protein kinase 4 (Homo sapiens) (UniProt P57078). The experiment in a line: Binding affinity to wild-type human partial length RIPK4 (M1 to V303 residues) expressed in mammalian expression system assessed as residual binding level at 10 uM by Kinomescan method relative to control.
Experiment [19] concerns the target SRSF protein kinase 2 (Homo sapiens) (UniProt P78362). The experiment in a line: Binding affinity to wild-type human full length SRPK2 (M1 to S686 residues) expressed in bacterial expression system assessed as residual binding level at 10 uM by Kinomescan method relative to control.
The target in experiment [20] is Serine/threonine-protein kinase TBK1 (Homo sapiens) (UniProt Q9UHD2). Kind of experiment: Binding affinity to wild-type human full length TBK1 (M1 to L729 residues) expressed in mammalian expression system assessed as residual binding level at 10 uM by Kinomescan method relative to control.
In experiment [21] the target is Angiopoietin-1 receptor (Homo sapiens) (UniProt Q02763). Kind of experiment: Binding affinity to wild-type human partial length TIE2 (N804 to T1112 residues) expressed in bacterial expression system assessed as residual binding level at 10 uM by Kinomescan method relative to control.
Experiment [22] deals with Tyrosine-protein kinase TXK (Homo sapiens) (UniProt P42681). The experiment in a line: Binding affinity to wild-type human partial length TXK (L238 to W527 residues) expressed in bacterial expression system assessed as residual binding level at 10 uM by Kinomescan method relative to control.
The target in experiment [23] is Wee1-like protein kinase 2 (Homo sapiens) (UniProt P0C1S8). The experiment in a line: Binding affinity to wild-type human partial length WEE2 (M204 to K492 residues) expressed in bacterial expression system assessed as residual binding level at 10 uM by Kinomescan method relative to control.
The target in experiment [24] is Tyrosine-protein kinase ZAP-70 (Homo sapiens) (UniProt P43403). The experiment in a line: Binding affinity to wild-type human partial length ZAP70 (D20 to G299 residues) expressed in mammalian expression system assessed as residual binding level at 10 uM by Kinomescan method relative to control.

The structures appear in SMILES notation.

Sequence of MAP/microtubule affinity-regulating kinase 4 (Homo sapiens) (Q96L34 whole entry, the tested form may be a part): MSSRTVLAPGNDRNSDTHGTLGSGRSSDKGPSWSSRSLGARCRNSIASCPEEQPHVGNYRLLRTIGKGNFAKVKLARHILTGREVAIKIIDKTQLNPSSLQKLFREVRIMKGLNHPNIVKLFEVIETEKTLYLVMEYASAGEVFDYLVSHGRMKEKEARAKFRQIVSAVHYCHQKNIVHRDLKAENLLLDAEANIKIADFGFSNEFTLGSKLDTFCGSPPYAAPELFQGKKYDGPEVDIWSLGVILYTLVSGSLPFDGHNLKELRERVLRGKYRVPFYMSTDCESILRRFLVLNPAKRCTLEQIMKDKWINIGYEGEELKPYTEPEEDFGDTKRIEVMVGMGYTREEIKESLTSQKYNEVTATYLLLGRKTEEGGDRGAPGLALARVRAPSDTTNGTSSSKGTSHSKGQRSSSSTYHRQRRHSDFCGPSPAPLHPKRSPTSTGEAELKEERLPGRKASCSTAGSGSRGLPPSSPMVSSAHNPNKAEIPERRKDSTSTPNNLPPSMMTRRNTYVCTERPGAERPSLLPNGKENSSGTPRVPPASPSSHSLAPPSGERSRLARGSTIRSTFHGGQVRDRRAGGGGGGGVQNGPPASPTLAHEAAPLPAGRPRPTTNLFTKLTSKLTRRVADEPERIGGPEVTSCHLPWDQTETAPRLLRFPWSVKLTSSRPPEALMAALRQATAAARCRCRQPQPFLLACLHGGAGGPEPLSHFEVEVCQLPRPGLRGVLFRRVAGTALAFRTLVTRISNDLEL
Sequence of Tyrosine-protein kinase TXK (Homo sapiens) (P42681 whole entry, the tested form may be a part): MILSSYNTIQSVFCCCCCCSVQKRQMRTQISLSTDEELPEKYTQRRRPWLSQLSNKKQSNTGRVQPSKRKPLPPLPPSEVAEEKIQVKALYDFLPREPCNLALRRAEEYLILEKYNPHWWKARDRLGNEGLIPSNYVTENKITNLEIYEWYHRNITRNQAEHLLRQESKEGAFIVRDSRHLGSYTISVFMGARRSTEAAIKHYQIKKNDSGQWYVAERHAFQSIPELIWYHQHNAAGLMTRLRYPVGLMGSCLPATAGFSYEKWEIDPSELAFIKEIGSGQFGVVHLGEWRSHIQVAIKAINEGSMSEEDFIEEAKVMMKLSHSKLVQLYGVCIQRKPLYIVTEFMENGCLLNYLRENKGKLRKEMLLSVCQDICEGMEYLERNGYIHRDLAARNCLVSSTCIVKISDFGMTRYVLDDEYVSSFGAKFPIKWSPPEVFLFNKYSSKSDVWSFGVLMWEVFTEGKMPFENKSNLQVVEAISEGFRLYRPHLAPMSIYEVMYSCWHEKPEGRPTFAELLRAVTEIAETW
Sequence of Beta-adrenergic receptor kinase 1 (Homo sapiens) (P25098 whole entry, the tested form may be a part): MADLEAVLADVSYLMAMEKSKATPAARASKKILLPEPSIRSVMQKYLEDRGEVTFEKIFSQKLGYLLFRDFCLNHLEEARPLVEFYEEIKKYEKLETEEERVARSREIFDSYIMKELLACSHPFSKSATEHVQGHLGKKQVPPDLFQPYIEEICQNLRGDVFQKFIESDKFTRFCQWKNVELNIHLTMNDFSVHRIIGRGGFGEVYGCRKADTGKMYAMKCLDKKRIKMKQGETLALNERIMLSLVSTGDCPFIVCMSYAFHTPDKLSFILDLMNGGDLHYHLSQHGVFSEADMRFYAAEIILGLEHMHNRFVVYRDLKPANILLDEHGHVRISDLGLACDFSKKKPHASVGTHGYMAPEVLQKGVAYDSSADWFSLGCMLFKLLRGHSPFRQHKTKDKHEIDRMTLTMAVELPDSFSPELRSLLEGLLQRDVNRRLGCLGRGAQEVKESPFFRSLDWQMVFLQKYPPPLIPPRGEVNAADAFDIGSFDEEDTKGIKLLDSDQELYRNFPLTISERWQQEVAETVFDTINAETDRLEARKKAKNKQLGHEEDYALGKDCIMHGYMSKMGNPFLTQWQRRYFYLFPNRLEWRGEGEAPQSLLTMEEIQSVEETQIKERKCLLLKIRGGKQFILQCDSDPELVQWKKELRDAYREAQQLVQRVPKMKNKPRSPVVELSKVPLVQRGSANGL
Sequence of Serine/threonine-protein kinase ICK (Homo sapiens) (Q9UPZ9 whole entry, the tested form may be a part): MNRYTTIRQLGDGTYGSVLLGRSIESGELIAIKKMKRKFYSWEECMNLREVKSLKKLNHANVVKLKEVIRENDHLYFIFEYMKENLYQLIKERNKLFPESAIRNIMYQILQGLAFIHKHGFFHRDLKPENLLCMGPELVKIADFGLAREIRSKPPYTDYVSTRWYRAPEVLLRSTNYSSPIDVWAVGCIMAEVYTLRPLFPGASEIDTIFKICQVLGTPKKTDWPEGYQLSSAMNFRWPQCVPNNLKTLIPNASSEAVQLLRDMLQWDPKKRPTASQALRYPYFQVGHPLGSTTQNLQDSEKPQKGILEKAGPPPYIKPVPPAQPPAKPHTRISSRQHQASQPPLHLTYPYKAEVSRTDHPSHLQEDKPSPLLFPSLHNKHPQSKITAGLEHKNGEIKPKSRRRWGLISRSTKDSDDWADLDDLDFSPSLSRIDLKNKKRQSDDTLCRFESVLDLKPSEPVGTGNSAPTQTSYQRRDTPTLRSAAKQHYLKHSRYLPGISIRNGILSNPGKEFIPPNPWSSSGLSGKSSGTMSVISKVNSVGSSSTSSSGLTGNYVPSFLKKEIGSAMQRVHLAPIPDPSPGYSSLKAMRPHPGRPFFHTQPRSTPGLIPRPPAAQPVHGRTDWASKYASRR
Sequence of Dual specificity mitogen-activated protein kinase kinase 2 (Homo sapiens) (P36507 whole entry, the tested form may be a part): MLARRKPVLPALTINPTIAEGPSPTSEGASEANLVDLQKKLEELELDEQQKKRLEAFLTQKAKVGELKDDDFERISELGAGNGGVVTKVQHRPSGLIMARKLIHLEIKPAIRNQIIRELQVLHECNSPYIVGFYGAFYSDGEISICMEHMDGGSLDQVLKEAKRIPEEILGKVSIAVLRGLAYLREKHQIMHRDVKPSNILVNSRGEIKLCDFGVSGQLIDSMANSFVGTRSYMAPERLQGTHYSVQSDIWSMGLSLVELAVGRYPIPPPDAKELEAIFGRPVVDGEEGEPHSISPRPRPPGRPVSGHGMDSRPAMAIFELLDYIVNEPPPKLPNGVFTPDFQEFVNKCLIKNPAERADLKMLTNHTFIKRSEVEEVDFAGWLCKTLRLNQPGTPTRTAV
Sequence of Serine/threonine-protein kinase Chk1 (Homo sapiens) (O14757 whole entry, the tested form may be a part): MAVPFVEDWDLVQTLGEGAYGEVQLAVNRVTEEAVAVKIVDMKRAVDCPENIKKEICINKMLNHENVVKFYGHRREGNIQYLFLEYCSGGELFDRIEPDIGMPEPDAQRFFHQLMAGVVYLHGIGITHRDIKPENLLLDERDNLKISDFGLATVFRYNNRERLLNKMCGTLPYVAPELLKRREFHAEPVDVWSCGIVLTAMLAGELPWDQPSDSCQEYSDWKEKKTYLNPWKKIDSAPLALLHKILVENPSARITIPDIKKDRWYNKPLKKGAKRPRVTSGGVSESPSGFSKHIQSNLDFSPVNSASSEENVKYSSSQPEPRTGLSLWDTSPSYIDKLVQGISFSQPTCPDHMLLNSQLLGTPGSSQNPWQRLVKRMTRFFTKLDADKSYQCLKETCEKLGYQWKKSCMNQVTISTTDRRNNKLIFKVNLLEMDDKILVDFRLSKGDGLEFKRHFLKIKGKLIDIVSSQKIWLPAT
Sequence of Tyrosine-protein kinase HCK (Homo sapiens) (P08631 2-526 limits assumed): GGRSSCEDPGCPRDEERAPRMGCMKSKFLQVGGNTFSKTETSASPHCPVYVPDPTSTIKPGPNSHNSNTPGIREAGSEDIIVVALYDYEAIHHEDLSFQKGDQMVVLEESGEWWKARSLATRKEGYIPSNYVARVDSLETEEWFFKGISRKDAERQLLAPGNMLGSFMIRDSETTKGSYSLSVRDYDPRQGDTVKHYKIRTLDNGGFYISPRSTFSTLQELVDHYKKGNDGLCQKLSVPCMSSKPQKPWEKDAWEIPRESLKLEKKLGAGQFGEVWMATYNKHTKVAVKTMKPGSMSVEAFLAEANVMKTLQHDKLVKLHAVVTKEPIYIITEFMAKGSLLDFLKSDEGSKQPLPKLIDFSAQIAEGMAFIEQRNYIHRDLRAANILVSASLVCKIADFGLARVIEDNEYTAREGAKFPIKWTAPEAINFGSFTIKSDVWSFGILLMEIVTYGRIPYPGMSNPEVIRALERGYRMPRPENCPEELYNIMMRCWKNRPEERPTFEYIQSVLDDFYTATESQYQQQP
Sequence of Tyrosine-protein kinase ZAP-70 (Homo sapiens) (P43403 whole entry, the tested form may be a part): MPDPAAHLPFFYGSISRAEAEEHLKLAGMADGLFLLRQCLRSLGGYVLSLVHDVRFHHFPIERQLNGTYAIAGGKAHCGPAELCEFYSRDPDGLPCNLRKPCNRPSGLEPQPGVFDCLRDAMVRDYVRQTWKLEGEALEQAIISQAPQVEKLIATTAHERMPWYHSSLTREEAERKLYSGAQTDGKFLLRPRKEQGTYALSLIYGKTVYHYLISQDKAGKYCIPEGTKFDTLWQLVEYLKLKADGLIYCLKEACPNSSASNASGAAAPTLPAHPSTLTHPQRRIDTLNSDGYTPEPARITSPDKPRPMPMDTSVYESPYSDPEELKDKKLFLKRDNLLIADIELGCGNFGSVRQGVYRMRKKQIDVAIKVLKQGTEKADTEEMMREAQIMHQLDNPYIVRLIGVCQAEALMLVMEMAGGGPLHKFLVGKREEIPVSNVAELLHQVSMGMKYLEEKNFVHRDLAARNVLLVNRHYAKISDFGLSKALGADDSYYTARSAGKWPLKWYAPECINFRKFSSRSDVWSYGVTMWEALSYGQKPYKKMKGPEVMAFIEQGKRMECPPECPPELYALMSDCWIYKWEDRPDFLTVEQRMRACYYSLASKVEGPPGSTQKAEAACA
Sequence of Aurora kinase B (Homo sapiens) (Q96GD4 whole entry, the tested form may be a part): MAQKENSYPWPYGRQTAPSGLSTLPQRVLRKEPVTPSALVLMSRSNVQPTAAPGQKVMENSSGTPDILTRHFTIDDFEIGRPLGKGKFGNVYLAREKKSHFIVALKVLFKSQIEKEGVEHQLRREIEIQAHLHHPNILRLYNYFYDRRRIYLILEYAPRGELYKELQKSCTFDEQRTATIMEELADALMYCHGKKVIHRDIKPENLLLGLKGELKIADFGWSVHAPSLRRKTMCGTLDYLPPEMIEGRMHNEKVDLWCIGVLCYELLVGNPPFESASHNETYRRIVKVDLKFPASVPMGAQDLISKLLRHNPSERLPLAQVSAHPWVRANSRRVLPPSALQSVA

Turning to `O=C(Nc1cc(-c2cn(CCNc3c4c(nc5ccccc35)CCCC4)nn2)ccn1)Nc1cccc2c1C1CCCCN1C2=O` (racemic), the Activity in experiment [1] was found to be 5.6%; in [2] it was 92%; in experiment [3] it was 0.8%; in experiment [4] it was 100%; in experiment [5], 100%; in experiment [6], 7.5%. Moreover, the Activity in [7] amounted to 30%; in [8] it was 82%; in [9], 13%; in experiment [10], 35%; in [11], 11%; in experiment [12], 66%. Moreover, the Activity in experiment [13] is 89%; in experiment [14], 28%; in [15] it was 8.9%; in experiment [16], 4%; in experiment [17], 77%; in [18], 30%. For the same molecule, the Activity in experiment [19] was 35%; in [20] it was 10%; in experiment [21] it was 77%; in experiment [22] it was 95%; in experiment [23] it was 100%; in experiment [24], 60%.
